PubChem BioAssay AID1259407 (Chemical Carcinogenesis Research Information System (CCRIS), 2018)
The source made the active and inactive calls. No rule for the calls is given here.

Tested on: CCRIS mutagenicity, Ames/micronucleus/aberration tests
Experiment: CCRIS mutagenicity studies
[1] = Test System: AMES SALMONELLA TYPHIMURIUM, Strain/Indicator: TA98, Metabolic Activation: NONE, Method: STANDARD PLATE
[2] = Test System: AMES SALMONELLA TYPHIMURIUM, Strain/Indicator: TA100, Metabolic Activation: NONE, Method: STANDARD PLATE

Measured: mutagenic call

O=CCCCC=O
active: End Point: IN VITRO CHROMOSOMAL ABERRATIONS, Test System: CHL CELLS, Metabolic Activation: RAT, LIVER, S-9, SODIUM PHENOBARBITAL AND 5,6-BENZOFLAVONE active; positive (structural and ploidy changes) | End Point: In vitro micronucleus, Test System: Chinese hamster V79 cells, Metabolic Activation: None active; positive (concentrations of 10 um and above strongly inhibited growth of cells, | Test System: AMES SALMONELLA TYPHIMURIUM, Strain/Indicator: TA100, Metabolic Activation: MOUSE LIVER S-9, AROCLOR 1254, Method: PREINCUBATION active; positive | Test System: AMES SALMONELLA TYPHIMURIUM, Strain/Indicator: TA100, Metabolic Activation: RAT LIVER S-9, AROCLOR 1254, Method: PREINCUBATION active; positive | Test System: AMES SALMONELLA TYPHIMURIUM, Strain/Indicator: TA102, Metabolic Activation: MOUSE LIVER S-9, AROCLOR 1254, Method: PREINCUBATION active; positive | Test System: AMES SALMONELLA TYPHIMURIUM, Strain/Indicator: TA102, Metabolic Activation: MOUSE LIVER S-9, AROCLOR-1254 (10%), Method: PREINCUBATION active; positive | Test System: AMES SALMONELLA TYPHIMURIUM, Strain/Indicator: TA102, Metabolic Activation: NONE, Method: PREINCUBATION active; positive | Test System: AMES SALMONELLA TYPHIMURIUM, Strain/Indicator: TA102, Metabolic Activation: RAT LIVER S-9, AROCLOR 1254, Method: PREINCUBATION active; positive | Test System: AMES SALMONELLA TYPHIMURIUM, Strain/Indicator: TA102, Metabolic Activation: RAT LIVER S-9, AROCLOR-1254 (10%), Method: PREINCUBATION active; positive | Test System: AMES SALMONELLA TYPHIMURIUM, Strain/Indicator: TA104, Metabolic Activation: MOUSE LIVER S-9, AROCLOR 1254, Method: PREINCUBATION active; positive | Test System: AMES SALMONELLA TYPHIMURIUM, Strain/Indicator: TA104, Metabolic Activation: MOUSE LIVER S-9, AROCLOR-1254 (10%), Method: PREINCUBATION active; positive | Test System: AMES SALMONELLA TYPHIMURIUM, Strain/Indicator: TA104, Metabolic Activation: NONE, Method: PREINCUBATION active; positive | Test System: AMES SALMONELLA TYPHIMURIUM, Strain/Indicator: TA104, Metabolic Activation: RAT LIVER S-9, AROCLOR 1254, Method: PREINCUBATION active; positive | Test System: AMES SALMONELLA TYPHIMURIUM, Strain/Indicator: TA104, Metabolic Activation: RAT LIVER S-9, AROCLOR-1254 (10%), Method: PREINCUBATION active; positive | Test System: AMES SALMONELLA TYPHIMURIUM, Strain/Indicator: TA2638, Metabolic Activation: NONE, Method: STANDARD PLATE active; positive | Test System: AMES SALMONELLA TYPHIMURIUM, Strain/Indicator: TA2638A, Metabolic Activation: NONE, Method: STANDARD PLATE active; positive | Test System: E. COLI, Strain/Indicator: WP2 UVRA (PKM101), Metabolic Activation: NONE, Method: STANDARD PLATE active; positive | Test System: MOUSE LYMPHOMA, Strain/Indicator: L5178Y (TRIFLUOROTHYMIDINE), Metabolic Activation: NONE, Method: SUSPENSION/PLATE active; positive | Test System: UDS RODENT HEPATOCYTES, Strain/Indicator: THY INCORP (NON-S-PHASE), Metabolic Activation: NONE, Method: AUTORADIOGRAPHY active; positive
inactive: End Point: IN VITRO CHROMOSOMAL ABERRATIONS, Test System: SYRIAN HAMSTER EMBRYO (SHE) CELLS, Metabolic Activation: NONE inactive; negative | End Point: IN VITRO CHROMOSOMAL ABERRATIONS, Test System: SYRIAN HAMSTER EMBRYO (SHE) CELLS, Metabolic Activation: RAT, LIVER, S-9 inactive; negative | End Point: In vitro micronucleus, Test System: Chinese hamster V79 cells, Metabolic Activation: None, Method: FISH inactive; positive (majority were centromer negative. authors attribute results as showing | Test System: AMES SALMONELLA TYPHIMURIUM, Strain/Indicator: TA97A, Metabolic Activation: NONE, Method: STANDARD PLATE inactive; negative | Test System: AMES SALMONELLA TYPHIMURIUM, Strain/Indicator: TA98, Metabolic Activation: HAMSTER LIVER S-9, AROCLOR-1254 (10%), Method: PREINCUBATION inactive; negative | [1] inactive; negative | Test System: AMES SALMONELLA TYPHIMURIUM, Strain/Indicator: TA98, Metabolic Activation: RAT LIVER S-9, AROCLOR-1254 (10%), Method: PREINCUBATION inactive; negative | Test System: AMES SALMONELLA TYPHIMURIUM, Strain/Indicator: TA98, Metabolic Activation: RAT LIVER S-9, PHENOBARBITAL AND BETA-NAPHTHOFLAVONE, Method: PREINCUBATION inactive; negative | Test System: AMES SALMONELLA TYPHIMURIUM, Strain/Indicator: TA100, Metabolic Activation: HAMSTER LIVER S-9, AROCLOR-1254 (10%), Method: PREINCUBATION inactive; negative | [2] inactive; negative | Test System: AMES SALMONELLA TYPHIMURIUM, Strain/Indicator: TA100, Metabolic Activation: RAT LIVER S-9, PHENOBARBITAL AND BETA-NAPHTHOFLAVONE NONE, Method: PREINCUBATION inactive; negative | Test System: AMES SALMONELLA TYPHIMURIUM, Strain/Indicator: TA104, Metabolic Activation: NONE, Method: STANDARD PLATE inactive; negative | Test System: AMES SALMONELLA TYPHIMURIUM, Strain/Indicator: TA1535, Metabolic Activation: HAMSTER LIVER S-9, AROCLOR-1254 (10%), Method: PREINCUBATION inactive; negative | Test System: AMES SALMONELLA TYPHIMURIUM, Strain/Indicator: TA1535, Metabolic Activation: NONE, Method: PREINCUBATION inactive; negative | Test System: AMES SALMONELLA TYPHIMURIUM, Strain/Indicator: TA1535, Metabolic Activation: RAT LIVER S-9, AROCLOR-1254 (10%), Method: PREINCUBATION inactive; negative | Test System: AMES SALMONELLA TYPHIMURIUM, Strain/Indicator: TA1535, Metabolic Activation: RAT LIVER S-9, PHENOBARBITAL AND BETA-NAPHTHOFLAVONE NONE, Method: PREINCUBATION inactive; negative | Test System: AMES SALMONELLA TYPHIMURIUM, Strain/Indicator: TA1537, Metabolic Activation: HAMSTER LIVER S-9, AROCLOR-1254 (10%), Method: PREINCUBATION inactive; negative | Test System: AMES SALMONELLA TYPHIMURIUM, Strain/Indicator: TA1537, Metabolic Activation: NONE, Method: PREINCUBATION inactive; negative | Test System: AMES SALMONELLA TYPHIMURIUM, Strain/Indicator: TA1537, Metabolic Activation: RAT LIVER S-9, AROCLOR-1254 (10%), Method: PREINCUBATION inactive; negative | Test System: AMES SALMONELLA TYPHIMURIUM, Strain/Indicator: TA1537, Metabolic Activation: RAT LIVER S-9, PHENOBARBITAL AND BETA-NAPHTHOFLAVONE NONE, Method: PREINCUBATION inactive; negative | Test System: E. COLI, Strain/Indicator: WP2UVRA, Metabolic Activation: NONE, Method: PREINCUBATION inactive; negative | Test System: E. COLI, Strain/Indicator: WP2UVRA, Metabolic Activation: RAT LIVER S-9, PHENOBARBITAL AND BETA-NAPHTHOFLAVONE, Method: PREINCUBATION inactive; negative

CCN(CCCl)c1ccc(-c2nc3ccc(-c4nc5ccc(N6CCN(C)CC6)cc5[nH]4)cc3[nH]2)cc1
inactive: [1] inactive; negative | [2] inactive; negative | Test System: AMES SALMONELLA TYPHIMURIUM, Strain/Indicator: TA102, Metabolic Activation: NONE, Method: STANDARD PLATE inactive; negative

COc1cc(CCC(C)=O)ccc1O
inactive: [1] inactive; negative | Test System: AMES SALMONELLA TYPHIMURIUM, Strain/Indicator: TA98, Metabolic Activation: RAT, LIVER, S-9, AROCLOR 1254, Method: STANDARD PLATE inactive; negative | [2] inactive; negative | Test System: AMES SALMONELLA TYPHIMURIUM, Strain/Indicator: TA100, Metabolic Activation: RAT, LIVER, S-9, AROCLOR 1254, Method: STANDARD PLATE inactive; negative | Test System: AMES SALMONELLA TYPHIMURIUM, Strain/Indicator: TA1535, Metabolic Activation: NONE, Method: STANDARD PLATE inactive; negative | Test System: AMES SALMONELLA TYPHIMURIUM, Strain/Indicator: TA1535, Metabolic Activation: RAT, LIVER, S-9, AROCLOR 1254, Method: STANDARD PLATE inactive; negative | Test System: AMES SALMONELLA TYPHIMURIUM, Strain/Indicator: TA1538, Metabolic Activation: NONE, Method: STANDARD PLATE inactive; negative | Test System: AMES SALMONELLA TYPHIMURIUM, Strain/Indicator: TA1538, Metabolic Activation: RAT, LIVER, S-9, AROCLOR 1254, Method: STANDARD PLATE inactive; negative | Test System: E. COLI, Strain/Indicator: CM561 LEXA, Metabolic Activation: NONE, Method: STANDARD PLATE inactive; negative | Test System: E. COLI, Strain/Indicator: CM611 UVRA/LEXA, Metabolic Activation: NONE, Method: STANDARD PLATE inactive; negative | Test System: E. COLI, Strain/Indicator: WP2 UVRA, Metabolic Activation: NONE, Method: STANDARD PLATE inactive; negative
